Source: patent publication EP4782453A1 (Beyang Therapeutics Co., Ltd., priority 2023, dated 2025)
Where two headings read alike, the source gives them in different places.

Biological target: T1, Menin-MLL (Homo sapiens, UniProt O00255)
T1 construct: His-Menin (M1-L615 end); purchased BIORTUS BP9210
T1 sequence (O00255 1-615 isoform O00255-1): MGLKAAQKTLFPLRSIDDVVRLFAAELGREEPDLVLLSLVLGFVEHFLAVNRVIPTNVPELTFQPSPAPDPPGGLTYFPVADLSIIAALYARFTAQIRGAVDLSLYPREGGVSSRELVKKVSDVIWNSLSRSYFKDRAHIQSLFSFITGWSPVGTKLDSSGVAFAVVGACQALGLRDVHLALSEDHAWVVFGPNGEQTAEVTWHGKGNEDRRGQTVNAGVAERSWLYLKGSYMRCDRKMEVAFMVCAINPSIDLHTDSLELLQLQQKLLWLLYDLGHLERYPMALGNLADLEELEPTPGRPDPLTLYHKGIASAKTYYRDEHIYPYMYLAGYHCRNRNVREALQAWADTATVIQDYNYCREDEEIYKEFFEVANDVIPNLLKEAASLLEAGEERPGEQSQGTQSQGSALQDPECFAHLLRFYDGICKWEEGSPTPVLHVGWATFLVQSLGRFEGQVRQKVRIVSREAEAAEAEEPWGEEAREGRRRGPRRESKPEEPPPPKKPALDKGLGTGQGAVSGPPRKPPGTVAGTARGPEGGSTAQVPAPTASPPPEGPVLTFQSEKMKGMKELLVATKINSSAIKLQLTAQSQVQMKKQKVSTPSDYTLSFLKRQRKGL
Experiment: Inhibitory activity against Menin-MLL binding (fluorescence polarization)
Conditions: 150 nM His-Menin, 15 nM FITC-MLL, 25°C for 60 min
How it was run: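 Fluorescence polarization competition: compound and 150 nM His-tagged menin (residues M1-L615) sit 15 min at 25 °C in pH 7.5 HEPES buffer with NaCl, DTT and BSA; 15 nM FITC-labelled MLL peptide then binds for 60 min. IC50 fitted sigmoidally from mP values, duplicate wells.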

[1] = fluorescence polarization, read-out: Menin-MLL IC50
[2] = Menin-MLL IC50, fluorescence polarization

In the case of `COCC(C1CCOCC1)N1CC(c2cc(-c3ccc(F)cc3C(=O)N3CCOC[C@H]3C)c3c(F)nc(C)n3c2)C1` (stereo partly drawn) [Example 255, (3R)-4-[5-fluoro-2-(1-fluoro-6-{1-[2-methoxy-1-(oxacyclohexan-4-yl)ethyl]azacyclobutan-3-yl}-3-methylimidazo[1,5-a]pyridin-8-yl)benzoyl]-3-methylmorpholine], the IC50 [1] is reported as 86 nM.
`COC1CCN(CCCC(C(C)C)N2CC(c3cc(-c4ccc(F)cc4C(=O)N4CCOCC4C)c4c(F)nc(C)n4c3)C2)C1` (centres unmarked) [Example 201-2] gave an IC50 [1] of 56 nM.
Molecule `Cc1nc(F)c2c(-c3ccc(F)cc3C(=O)N3CCOC[C@H]3C)cc(C3CN([C@@H](CN4CCN(C(=O)OC(C)(C)C)CC4)C(C)C)C3)cn12` [Example 366-1, 4-[(2R)-2-[3-(1-fluoro-8-{4-fluoro-2-[(3R)-3-methylmorpholin-4-carbonyl]phenyl}-3-methylimidazo[1,5-a]pyridin-6-yl)azacyclobutan-1-yl]-3-methylbutyl]piperazin-1-tert-butyl carboxylate] has an IC50 [1] of 1150 nM.
For `COCCN(C)CCC[C@@H](C(C)C)N1CC(c2cc(-c3ccc(F)cc3C(=O)N3[C@H](C)COC[C@H]3C)c3cnn(C)c3c2)C1` [Example 186-1, [(4S)-4-[3-(4-{2-[(3R,5R)-3,5-dimethylmorpholin-4-carbonyl]-4-fluorophenyl}-1-methyl-1H-indazol-6-yl)azacyclobutan-1-yl]-5-methylhexyl](2-methoxyethyl)methylamine], the IC50 [1] was 262 nM.
In the case of `Cc1nc(F)c2c(-c3ccc(F)cc3C(=O)N3CCOC[C@H]3C)cc(C3CN([C@@H](CN4CCNCC4)C(C)C)C3)cn12` [Example 367-1, (3R)-4-[5-fluoro-2-(1-fluoro-3-methyl-6-{1-[(2R)-3-methyl-1-(piperazin-1-yl)butan-2-yl]azacyclobutan-3-yl}imidazo[1,5-a]pyridin-8-yl)benzoyl]-3-methylmorpholine], the IC50 [1] is reported as 3.9 nM.
`Cc1nc(F)c2c(-c3ccc(F)cc3C(=O)N3CCOC[C@H]3C)cc(C3CN(C[C@H]4CC[C@H](c5cnn(C)c5)CC4)C3)cn12` [Example 276-2, (3R)-4-{5-fluoro-2-[1-fluoro-3-methyl-6-(1-{[(1r,4r)-4-(1-methyl-1H-pyrazol-4-yl)cyclohexyl]methyl}azacyclobutan-3-yl)imidazo[1,5-a]pyridin-8yl]benzoyl}-3-methylmorpholine] showed an IC50 [1] of 7 nM.
In the case of `CCN(C(=O)c1cc(F)ccc1-c1cc(C2CN(C(=O)[C@@H](NC)C(C)C)C2)cn2c(C)nc(F)c12)C(C)C` [Example 315], the IC50 [2] is reported as 39 nM.
`CCN(C(=O)c1cc(F)ccc1-c1cc(C2=CCN(C(=O)C3NC4CCC3CC4)CC2)c2ccncn12)C(C)C` [Example 113, N-ethyl-5-fluoro-N-(isopropyl)-2-(5-{1-[(1R,3S,4S)-2-azabicyclo[2.2.2]octan-3-carbonyl]-1,2,3,6-tetrahydropyridin-4-yl}pyrrolo[1,2-c]pyrimidin-7-yl)benzamide] gave an IC50 [2] of 201 nM.
Molecule `CCN(C(=O)c1cc(F)ccc1-c1cc(C2CN([C@@H](C)C3CCN(C(C)=O)CC3)C2)cn2c(C)nc(F)c12)C(C)C` [Example 288-2] has an IC50 [1] of 2 nM.
Molecule `CCN(C(=O)c1cc(F)ccc1-c1cc(N2CCN(C(=O)[C@@H]3Cc4ccccc4CN3)CC2)cn2c(C)nc(Cl)c12)C(C)C` [Example 116] has an IC50 [1] of 52 nM.
In the case of `Cc1nc(F)c2c(-c3ccc(F)cc3C(=O)N3CCOCC3C)cc(C3CN(C(C)C4CCN(C(=O)C5CC5F)CC4)C3)cn12` (centres unmarked) [Example 301], the IC50 [2] is reported as 9 nM.
`CCS(=O)(=O)N[C@H]1CC[C@H](CN2CC(c3cc(-c4ccc(F)cc4C(=O)N4CCOC[C@H]4C)c4cnn(C)c4c3)C2)CC1` [Example 159, N-[(1r,4r)-4-{[3-(4-{4-fluoro-2-[(3R)-3-methylmorpholin-4-carbonyl]phenyl}-1-methyl-1H-indazol-6-yl)azacyclobutan-1-yl]methyl}cyclohexyl]ethan-1-sulfonamide] was tested, and the IC50 [2] was 69 nM.
For `CCN(C(=O)c1cc(F)ccc1-c1cc(C2CN(C(CCCN3CCN(CCO)CC3)C(C)C)C2)cc2c(C)ncn12)C(C)C` (centres unmarked) [Example 466, N-ethyl-5-fluoro-2-[7-(1-{6-[4-(2-hydroxyethyl)piperazin-1-yl]-2-methylhexan-3-yl}azacyclobutan-3-yl)-1-methylimidazo[1,5-a]pyridin-5-yl]-N-(isopropyl)benzamide], the IC50 [1] was 2.9 nM.
For `CCN(C(=O)c1cc(F)ccc1-c1cc(C2CN(C(CCC3(O)COC3)C(C)C)C2)cn2c(C)ncc12)C(C)C` (centres unmarked) [Example 447, N-ethyl-5-fluoro-2-(6-{1-[1-(3-hydroxyloxacyclobutan-3-yl)-4-methylpentan-3-yl]azacyclobut-3-yl}-3-methylimidazo[1,5-a]pyridin-8-yl)-N-(isopropyl)benzamide], the IC50 [1] was 25 nM.
Work on `CCS(=O)(=O)N1CCC(CN2CC(c3cc(-c4ccc(F)cc4C(=O)N4CCOC[C@H]4C)c4c(F)nc(C)n4c3)C2)CC1` [Example 251] yielded an IC50 [1] of 106 nM.
With `CCN(C(=O)c1cc(F)ccc1-c1nc(C2CN(C(CCCN3CCN(CCO)CC3)C(C)C)C2)cn2c(C)ncc12)C(C)C` (centres unmarked) [Example 491, N-ethyl-5-fluoro-2-[6-(1-{6-[4-(2-hydroxyethyl)piperazin-1-yl]-2-methylhexan-3-yl}azacyclobutan-3-yl)-3-methylimidazo[1,5-a]pyrazin-8-yl]-N-(isopropyl)benzamide] the IC50 [1] was 130 nM.
Molecule `CC(=O)N1CC2CCC(C1)N2CCC[C@H](C(C)C)N1CC(c2cc(-c3ccc(F)cc3C(=O)N3CCOC[C@H]3C)c3cnn(C)c3c2)C1` [Example 383] has an IC50 [1] of 17 nM.
In the case of `CCN(C(=O)c1cc(F)ccc1-c1cc(C2CCN(C[C@H]3CC[C@H](NS(=O)(=O)CC)CC3)C2)cn2cncc12)C(C)C` (mixture of isomers) [Example 22, N-ethyl-5-fluoro-N-isopropyl-2-[6-(1-{[(1r,4r)-4-ethanesulfonamidocyclohexyl]methyl}pyrrolidin-3-yl)imidazo[1,5-a]pyridin-8-yl]benzamide], the IC50 [2] is reported as 25 nM.
`CCN(C(=O)c1cc(F)ccc1-c1cc(C2CN([C@H](CCCN3CCN(CCC#N)C(=O)C3)C(C)C)C2)cn2c(C)ncc12)C(C)C` [Example 493] gave an IC50 [1] of 5 nM.
`CCN(C(=O)c1cc(F)ccc1-c1cc(C2CCN(C[C@H]3CC[C@H](NC(C)=O)CC3)C2)cn2cncc12)C(C)C` (some centres unmarked) [Example 45] gave an IC50 [1] of 95.5 nM.
`CCN(C(=O)c1cc(F)ccc1-c1cc(N2CCN(C(=O)[C@@H]3CCCN3)CC2)c(Cl)n2c(C)ncc12)C(C)C` [Example 115, 2-(5-chloro-3-methyl-6-{4-[(2S)-pyrrolidin-2-carbonyl]piperazin-1-yl}imidazo[1,5-a]pyridin-8-yl)-N-ethyl-5-fluoro-N-(isopropyl)benzamide] gave an IC50 [1] of 152 nM.
`CCN(C(=O)c1cc(F)ccc1-c1cc(N2CCN(C(=O)[C@@H]3CCCN3)CC2)cn2c(C)ncc12)C(C)C` [Example 92] gave an IC50 [1] of 46.5 nM.
In the case of `CC(=O)N1CCN(CCC[C@H](C(C)C)N2CC(c3cc(-c4ccc(F)cc4C(=O)N4CCOC[C@H]4C)c4c(F)nc(C)n4c3)C2)C2(CC2)C1` [Example 334], the IC50 [1] is reported as 30 nM.
For `COCCN(C)CCCC(C(C)C)N1CC(c2cc(-c3ccc(F)cc3C(=O)N(CC(F)F)C(C)C)c3cnn(C)c3c2)C1` (centres unmarked) [Example 180], the IC50 [1] was 22 nM.
For `CNC(=O)N1CCC([C@@H](C)N2CC(c3cc(-c4ccc(F)cc4C(=O)N4CCOC[C@H]4C)c4c(F)nc(C)n4c3)C2)CC1` [Example 264-1], the IC50 [1] was 116 nM.
`CCN(C(=O)c1cc(F)ccc1-c1cc(C2CN([C@H](CN3CCN(C(C)=O)CC3)C(C)C)C2)cn2c(C)ncc12)C(C)C` [Example 443] was tested, and the IC50 [1] was 19.5 nM.
